Key:
[1] = Minimum film forming temperature, non-pigmented resin + coalescing agent; assay type: physicochemical; conditions: resin with 5 wt. % coalescing agent, film thickness 350 μm
[2] = MFFT of pigmented and complete PUDs; assay type: physicochemical; conditions: pigmented and complete PUD, 3 wt. % coalescing agent
From the text: (§1) Tests were first performed to determine the coalescing agent level for pigmented and complete PUD formulations in order to achieve the optimum film formation. Complete paints were mixed with 0.7 wt. %, 1.5 wt. %, 3.0 wt. % and 5.0 wt. % of coalescing agents and applied on tin plated steel at a wet film thickness of around 250 μm, where the weight percentage was based on the pure polyurethane dispersion resins. […] Based on the observations, 3 wt. % dosage of coalescing agent was selected. Complete PUD formulations with pigments, fillers and other additives were prepared as per Table 5, and used to test and determine the coalescing properties of the caprolactam-derived solvents and other known coalescing agents. The standard test for determining this temperature involves using a MFFT-BAR, as specified by standards ASTM D 2354 and ISO 2115. In general, the MFFT of a paint or coating is reduced temporarily by the use of coalescing agents.

[3] = Drying time (ASTM D1640 / ASTM D5895); assay type: physicochemical; conditions: 200 μm humid film; blends by ASTM D1640, single solvents by ASTM D5895
From the text: as §1, with “agents.” for “agents. The standard test for determining this temperature involves using a MFFT-BAR, as specified by standards ASTM D 2354 and ISO 2115. In general, the MFFT of a paint or coating is reduced temporarily by the use of coalescing agents.”
The drying times for the pigmented PUD formulations were determined according to the ASTM D1640 “Standard Test Methods for Drying, Curing, or Film Formation of Organic Coatings” standard or the ASTM D5895 “Standard Test Methods for Evaluating Drying or Curing During Film Formation of Organic Coatings Using Mechanical Recorders” standard. Four stages of drying can be identified depending on the trace left by the needle on the paint surface: Stage 1—Set-to-Touch time, Stage 2—Tack-Free time, Stage 3—Dry-Hard time, and Stage IV—Dry trough time. However, Stage IV is often hard to detect.
In general, the paints were applied at a humid film thickness of 200 μm by means of a bar coater on a Leneta sheet and the needle rate was set at 60 cm/hr.
For the present examples, the drying times for the 2:1 A:B, 1:1 A:B, and 1:2 A:B solvents were determined using the ASTM D1640 standard, and the drying times for NM CPL, NE CPL, NMP, NBP, ester amide, and ester alcohol were determined using the ASTM D5895 standard.

[4] = Scrub resistance of pigmented and complete PUDs (ISO 11998); assay type: physicochemical
From the text: as §1, with “agents.” for “agents. The standard test for determining this temperature involves using a MFFT-BAR, as specified by standards ASTM D 2354 and ISO 2115. In general, the MFFT of a paint or coating is reduced temporarily by the use of coalescing agents.”
Scrub resistance was tested according the ISO 11998 “Paints and Varnishes—Determination of Wet-Scrub Resistance and Cleanability of Coatings” standard. In this testing method, the paint was applied on a test panel (Leneta sheet) using a film applicator at the specific gap clearance. After drying and conditioning for four weeks at room temperature the coated panel was weighed and subject to 200 wet-scrub cycles in a scrub resistance machine. The panel was then washed, dried and weighed to determine the loss from which the mean loss in film thickness was calculated. […] For instance, N-methyl caprolactam (NM CPL), N-ethyl caprolactam (NE CPL), and blends thereof in the ratios of 1:2 and 1:1, all had less loss of thickness (2.035 μm, 1.797 μm, 1.39 μm, and 1.64 μm, respectively) as compared to NMP (2.090 μm) and NBP (2.213 μm).

[5] = Viscosity and storage stability of pigmented PUD formulations; assay type: physicochemical; conditions: 1 month at 50° C., FIG. 5
From the text: as §1, with “agents.” for “agents. The standard test for determining this temperature involves using a MFFT-BAR, as specified by standards ASTM D 2354 and ISO 2115. In general, the MFFT of a paint or coating is reduced temporarily by the use of coalescing agents.”
Dispersions and emulsions tend to aggregate polyurethane particles during storage. One way to determine the stability of a polyurethane dispersion is to measure viscosity of the polyurethane dispersion over time. Viscosity is a measure of a solvent's resistance to gradual deformation by shear stress or tensile stress. […] The storage stability of the dispersions was evaluated based on variations between viscosity measurements performed on paints shortly after their preparation and after their storage for either one month at room temperature or one month at 50° C.

[6] = Gloss of pigmented and complete PUDs (ISO 2813); assay type: physicochemical
From the text: as §1, with “agents.” for “agents. The standard test for determining this temperature involves using a MFFT-BAR, as specified by standards ASTM D 2354 and ISO 2115. In general, the MFFT of a paint or coating is reduced temporarily by the use of coalescing agents.”
(§2) Gloss measurements serve as an indicator of the paints surface quality. Gloss and color measurements were determined according to the ISO 2813 standard and the ISO 7724-2 standard (SCI-D65/10°), respectively.

[7] = Freeze and thaw stability (ASTM D2243-95); assay type: physicochemical
Method: Water-based emulsions and dispersions are susceptible to irreversible coagulation by freezing. Freeze and thaw stability was tested according the ASTM D2243-95 standard.
For these examples, pigmented PUD paints were subject to freeze-thaw cycles of 16 hours at −20° C. and 8 hours at room temperature and subsequently subject to visible observations. The paints were then applied on a tin plated steel plate at a thickness of approximately 200 μm for observing film properties.
In addition, the freeze-thaw stability was best for caprolactam-derived coalescing agents (NM CPL) and the blends even after subject to five cycles (see FIG. 9). In particular, the paints were visually observed after each cycle to see if there was any viscosity change, i.e., thickening of the paint. Then, the dry films of the coatings were observed visually.

[8] = Persoz hardness of pigmented and complete PUDs; assay type: physicochemical; conditions: pigmented, in s
From the text: as §1, with “agents.” for “agents. The standard test for determining this temperature involves using a MFFT-BAR, as specified by standards ASTM D 2354 and ISO 2115. In general, the MFFT of a paint or coating is reduced temporarily by the use of coalescing agents.”
Persoz hardness measurements were performed on pigmented paints that were applied on tin plated steel using a doctor blade applicator at a dry film thickness (DFT) around 50 μm according to the ISO 1522 standard. […] For instance, the 28 day hardness for N-ethyl caprolactam (NE CPL) was approximately 104.6±0.5, while the 28 day hardness for NMP was approximately 108.8±2.4, and the 28 day hardness for ester alcohol and N-methyl caprolactam (NM CPL) were approximately 124.8±1 and 126.0±1, respectively, while the 28 day hardness for NBP was approximately 135.8±5.

[9] = Solubility of DMPA in solvents
Method: Solubility was tested between the various solvents to determine their applicability in the PUD manufacturing processes. Solubility is the amount of a substance (coalescing agent) that dissolves in a unit volume of a liquid substance (solvent) to form a saturated solution under specified conditions of temperature and pressure. For the examples, amounts of […] (DMPA) were dissolved in each solvent.

[10] = Open time (ASTM D7488); assay type: physicochemical; conditions: ASTM D7488, 23±2° C., 50±5% RH, wet film 200 μm
From the text: as §1, with “agents.” for “agents. The standard test for determining this temperature involves using a MFFT-BAR, as specified by standards ASTM D 2354 and ISO 2115. In general, the MFFT of a paint or coating is reduced temporarily by the use of coalescing agents.”
Open times were determined according to the ASTM D7488 “Test Method for Open Time of Latex” standard and the tests were performed under controlled temperature and humidity (23±2° C. and 50±5% RH). In general, the paints were applied at a wet film thickness of 200 μm on contrasting sealed charts by means of a doctor blade applicator, and “X” marks are made immediately with the wide curved end of a wooden paint brush. After a determined time internal, the brush was dipped into the paint to be tested and brushing of the X-marks was started in perpendicular direction to the initial drawdown using 10 strokes back and forth to work the paint under test into the drawdown area. This procedure is repeated after several time intervals. After their complete drying (1 week), the painted panels are observed by two different observers and the time for which the “X” marks to become visible is considered as the open time.

[11] = Color of pigmented and complete PUDs (ISO 7724-2); assay type: physicochemical
From the text: as §1, with “agents.” for “agents. The standard test for determining this temperature involves using a MFFT-BAR, as specified by standards ASTM D 2354 and ISO 2115. In general, the MFFT of a paint or coating is reduced temporarily by the use of coalescing agents.”
as §2

CN1CCCCCC1=O [N—MeCPL, N-methyl caprolactam]
MFFT [1]: −0.8±0.4 °C | MFFT [2]: −0.8 °C | Drying Time [3]: 11.6 min | Wt. Loss ([4]; 200 wet-scrub cycles): 3.763 g/m^2 | Loss of thickness after 200 wet-scrub cycles ([4]; calculated from weight loss): 2.035 µm | storage stability (viscosity buildup) [5]: low viscosity buildup | Gloss 20° ([6]; 20°): 1.3 ± 0 | Gloss 60° ([6]; 60°): 3.0 ± 0 | Gloss 85° ([6]; 85°): 23.2 ± 0.2 | freeze-thaw stability and film properties (comparison) ([7]; FIGS. 8 and 9): better freeze-thaw stability and film properties than NBP and ester alcohol | freeze-thaw stability: viscosity change (thickening of the paint) ([7]; cycles of 16 hours at −20° C. and 8 hours at room temperature): no such viscosity change even after five freeze-thaw cycle | Persoz Hardness ([8]; 1 Day): 95.2 ± 1 | Persoz Hardness ([8]; 7 Days): 101.2 ± 3 | Persoz Hardness ([8]; 14 Days): 122.0 ± 3 | Persoz Hardness ([8]; 21 Days): 124.0 ± 3 | Persoz Hardness ([8]; 28 Days, listed as NM CPL): ~126.0±1 | Persoz Hardness ([8]; 28 Days, listed as NMCPL): 126.0 ± 1 | Solubility [9]: 27.5 g/100 g of Solvent | Open Time [10]: 14 min | Color (Black background) L* ([11]; Black background): 94.09 | Color (Black background) a* ([11]; Black background): −0.97 | Color (Black background) b* ([11]; Black background): 2.25 | Color (White background) L* ([11]; White background): 95.07 | Color (White background) a* ([11]; White background): −0.52 | Color (White background) b* ([11]; White background): 3.32 | effect on color (yellowing) ([11]; pigmented PUD): no yellowing

Reference: patent publication US12024584B2, “Methods and compositions for polyurethane dispersions using caprolactam-derived solvents” (AdvanSix Resins & Chemicals LLC, priority 2017, dated 2024)
